Here are results for 20 molecules from patent publication US6914066B2, “1,2-annelated quinoline derivatives” (Janssen Pharmaceutica N.V., priority 1998, dated 2005).

Structures can show the parent of a compound that is named as a salt.

Broadly, the melting point is the temperature, or range, at which the solid turns liquid. The molecule `Cn1cncc1C(O)(c1ccc(Cl)cc1)c1ccc2c(c1)c(-c1cccc(Cl)c1)c(C(=O)O)c1nnnn12` (centres unmarked) (as salt: hydrochloride) [Comp 53] yielded a melting point above 260 °C.
`Cn1cncc1C(O)(c1ccc(Cl)cc1)c1ccc2c(c1)c(-c1cccc(Cl)c1)c(CO)c1nnnn12` (centres unmarked) (as salt: hydrochloride) [Comp 82] yielded a melting point above 280 °C.
On to `Cn1cncc1C(OCCO)(c1ccc(Cl)cc1)c1ccc2c(c1)c(-c1cccc(Cl)c1)cc1nnnn12` (centres unmarked) (hydrate or solvate) [Comp 41], for which the melting point stood at 150 °C.
For the molecule `Fc1ccc(C(c2ccc3c(c2)c(-c2ccccc2)cc2nccn23)n2ccnc2)cc1` (racemic) (hydrate or solvate) [Comp 3, (±)-7-[(4fluorophenyl)(1H-imidazol-1-yl)methyl]-5-phenylimidazo[1,2-a]quinoline ethanedioate(2:3).hemihydrate], the melting point was determined as 204.3 °C.
Regarding `O=c1[nH]nc2cc(-c3ccccc3)c3cc(C(c4ccc(Cl)cc4)n4ccnc4)ccc3n12` (racemic) (hydrate or solvate) [Comp 7, (±)-7-[(4-chlorophenyl)-1H-imidazol-1-ylmethyl]-5-phenyl[1,2,4]triazolo[4,3-a]quinolin-1(2H)-one ethanedioate(1:1).hemihydrate], the melting point was 198.3 °C.
In the case of `Cn1cncc1C(O)(c1ccc(Cl)cc1)c1ccc2c(c1)c(-c1cccc(Cl)c1)cc1cnnn12` (racemic) [Comp 26, (±)-5-(3-chlorophenyl)-α-(4-chlorophenyl)-α-(1-methyl-1H-imidazol-5-yl)-[1,2,3]triazolo[1,5-a]quinoline-7-methanol] it was 222 °C; in that of `Cn1cncc1C(O)(c1ccc(Cl)cc1)c1ccc2c(c1)c(-c1cccc(Cl)c1)nc1nnnn12` (racemic) [Comp 29, (±)-5-(3-chlorophenyl)-α-(4-chlorophenyl)-α-(1-methyl-1H-imidazol-5-yl)tetrazolo[1,5-a]quinazoline-7-methanol], 139 °C; in that of `Cn1cncc1C(O)(c1ccc(Cl)cc1)c1ccc2c(c1)C(c1cccc(Cl)c1)Nc1nnnn1-2` (racemic) [Comp 30, (±)5-(3-chlorophenyl)-α-(4-chlorophenyl)4,5-dihydro-α-(1-methyl-1H-imidazol-5-yl)tetrazolo[1,5-a]quinazoline-7-methanol], 212 °C.
`Cn1cncc1C(N)(c1ccc(Cl)cc1)c1ccc2c(c1)c(-c1cccc(Cl)c1)nc1nnnn12` (racemic) [Comp 32, (±)-5-(3-chlorophenyl)-α-(4-chlorophenyl)-α-(1-methyl-1H-imidazol-5-yl)tetrazolo[1,5-a]quinazoline-7-methanamine]: the melting point worked out at 159 °C.
The molecule `CN1c2nnnn2-c2ccc(C(O)(c3ccc(Cl)cc3)c3cncn3C)cc2C1c1cccc(Cl)c1` (racemic) [Comp 33, (±)-5-(3-chlorophenyl)-α-(4-chlorophenyl)-4,5-dihydro-4methyl-α-(1-methyl-1H-imidazol-5-yl)tetrazolo[1,5-a]quinazoline-7-methanol] gave a melting point of 235 °C.
In turn, `Cn1cncc1C(N)(c1ccc(Cl)cc1)c1ccc2c(c1)c(-c1cccc(Cl)c1)cc1nnnn12` (centres unmarked) [Comp 27] showed a melting point of 172 °C.
Molecule `Cn1cncc1C(N)(c1ccc(Cl)cc1)c1ccc2c(c1)c(-c1cccc(Cl)c1)cc1nnnn12` (centres unmarked) [Comp 28] had a melting point of 180 °C.
In turn, `CNC(c1ccc(Cl)cc1)(c1ccc2c(c1)c(-c1cccc(Cl)c1)cc1nnnn12)c1cncn1C` (centres unmarked) [Comp 48] displayed a melting point of 167 °C.
Consider `CNc1ncc(C(c2ccc(Cl)cc2)c2ccc3c(c2)c(-c2cccc(Cl)c2)cc2nnnn23)n1C` (centres unmarked) [Comp 49], for which the melting point is 206 °C.
In the case of `Cn1cncc1C(N)(c1ccc(Cl)cc1)c1ccc2c(c1)c(-c1cccc(Cl)c1)c(C(N)=O)c1nnnn12` (centres unmarked) [Comp 77] it was above 250 °C; in that of `Cn1cncc1C(O)(c1ccc(Cl)cc1)c1ccc2c(c1)c(-c1cccc(Cl)c1)c(C(N)=O)c1nnnn12` (centres unmarked) [Comp 80], above 250 °C; in that of `Cn1cncc1C(c1ccc(Cl)cc1)c1ccc2c(c1)c(-c1cccc(Cl)c1)cc1nnnn12` (centres unmarked) [Comp 94], 166 °C.
`CCOC(=O)c1cn2c(cc(-c3cccc(Cl)c3)c3cc(C(O)(c4ccc(Cl)cc4)c4cncn4C)ccc32)n1` (centres unmarked) [Comp 95] gave a melting point of 143 °C.
The molecule `Cn1cncc1C(NO)(c1ccc(Cl)cc1)c1ccc2c(c1)c(-c1cccc(Cl)c1)cc1cnnn12` (centres unmarked) [Comp 98] had a melting point of 191 °C.
With `CNCC(=O)NC(c1ccc(Cl)cc1)(c1ccc2c(c1)c(-c1cccc(Cl)c1)cc1nnnn12)c1cncn1C` (centres unmarked) [Comp 121] the figure was 224 °C.
